Tests used:
Assay in all cases: UV-visible dark absorbance spectrum of purified reconstituted rhodopsin
Assay type in all cases: binding
Eat-BRh2 (BRh2, Eat-B2) = biological target: T1, Eat-BRh2 (BRh2, Eat-B2) (Eumaeus atala, UniProt A0A7T3U8M8); details: covalent, 40 uM 11-cis-retinal
T1 sequence (A0A7T3U8M8 1-380): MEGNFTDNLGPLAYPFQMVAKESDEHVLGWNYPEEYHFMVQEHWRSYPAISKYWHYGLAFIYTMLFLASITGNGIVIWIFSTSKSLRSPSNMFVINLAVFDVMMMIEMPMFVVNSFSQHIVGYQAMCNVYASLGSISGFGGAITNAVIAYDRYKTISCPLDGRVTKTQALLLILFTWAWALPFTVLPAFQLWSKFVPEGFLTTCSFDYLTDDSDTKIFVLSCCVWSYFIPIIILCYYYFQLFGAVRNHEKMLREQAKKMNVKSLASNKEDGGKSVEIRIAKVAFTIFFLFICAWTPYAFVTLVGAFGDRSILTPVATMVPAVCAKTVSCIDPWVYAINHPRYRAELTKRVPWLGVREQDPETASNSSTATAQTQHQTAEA

Eat-BRh1 (BRh1, Eat-B1) = biological target: T2, Eat-BRh1 (BRh1, Eat-B1) (Eumaeus atala, UniProt A0A7T3U8I9); details: covalent, 40 uM 11-cis-retinal
T2 sequence (A0A7T3U8I9 1-380): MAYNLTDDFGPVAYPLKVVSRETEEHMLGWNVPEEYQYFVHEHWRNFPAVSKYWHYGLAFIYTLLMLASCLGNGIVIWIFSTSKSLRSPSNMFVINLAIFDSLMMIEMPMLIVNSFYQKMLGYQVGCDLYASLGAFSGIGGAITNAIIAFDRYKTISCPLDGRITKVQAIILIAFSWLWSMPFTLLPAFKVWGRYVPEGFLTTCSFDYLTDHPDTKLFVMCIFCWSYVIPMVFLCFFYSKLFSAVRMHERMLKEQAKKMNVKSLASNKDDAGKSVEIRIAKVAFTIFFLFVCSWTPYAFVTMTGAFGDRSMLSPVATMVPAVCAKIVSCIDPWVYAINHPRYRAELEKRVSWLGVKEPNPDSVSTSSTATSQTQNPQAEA

Eumaeus atala UVRh = biological target: T3, Eumaeus atala UVRh (Eumaeus atala, UniProt A0A7T3U8H7); details: covalent, 40 uM 11-cis-retinal
T3 sequence (A0A7T3U8H7 1-406): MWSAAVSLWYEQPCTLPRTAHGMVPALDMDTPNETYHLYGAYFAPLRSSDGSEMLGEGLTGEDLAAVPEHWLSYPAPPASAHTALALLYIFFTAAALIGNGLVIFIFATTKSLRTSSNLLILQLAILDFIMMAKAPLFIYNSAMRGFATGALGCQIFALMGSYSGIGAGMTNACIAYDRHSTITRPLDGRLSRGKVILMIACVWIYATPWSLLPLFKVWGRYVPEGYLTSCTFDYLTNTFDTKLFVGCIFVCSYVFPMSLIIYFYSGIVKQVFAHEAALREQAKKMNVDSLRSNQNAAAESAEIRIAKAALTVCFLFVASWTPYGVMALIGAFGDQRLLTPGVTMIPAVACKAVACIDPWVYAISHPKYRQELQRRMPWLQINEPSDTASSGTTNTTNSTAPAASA

[1] = biological target: T4, Eumaeus atala LWRh (LW opsin) (Eumaeus atala, UniProt A0A7T3U8W4); details: covalent, 40 uM 11-cis-retinal, figure legend prints 567 nm
T4 sequence (A0A7T3U8W4 1-381): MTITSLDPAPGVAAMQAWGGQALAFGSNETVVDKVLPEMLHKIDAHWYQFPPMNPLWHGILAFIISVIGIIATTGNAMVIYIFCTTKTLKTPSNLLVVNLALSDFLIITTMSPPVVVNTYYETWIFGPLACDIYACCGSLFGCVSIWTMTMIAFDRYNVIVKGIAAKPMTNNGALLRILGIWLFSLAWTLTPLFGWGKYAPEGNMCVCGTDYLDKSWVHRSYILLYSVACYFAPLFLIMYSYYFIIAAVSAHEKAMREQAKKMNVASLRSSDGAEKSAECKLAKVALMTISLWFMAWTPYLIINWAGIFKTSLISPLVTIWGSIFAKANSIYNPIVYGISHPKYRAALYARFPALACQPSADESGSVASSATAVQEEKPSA

Work on `CC1=C(/C=C/C(C)=C/C=C\C(C)=C\C=O)C(C)(C)CCC1` [11-cis-retinal] yielded a λmax (Eat-BRh2 (BRh2, Eat-B2)) of 500 ± 2 nm, a λmax (Eat-BRh1 (BRh1, Eat-B1)) of 435 ± 2 nm and a λmax (Eumaeus atala UVRh) of 352 ± 3.5 nm. The λmax [1] was 569 ± 2 nm.
